Data published in publication PMC7607624 (Journal of nuclear medicine : official publication, Society …, 2013).

Legend:
[1] = parameters: species or system human; conditions: in vivo
[2] = parameters: species or system human; conditions: in vivo, iv
[3] = human, in vivo
[4] = parameters: species or system human; conditions: in vivo; remark: listed apart in the source
[5] = parameters: species or system human; conditions: in vivo; remark: listed apart in the source

With “(18S,21S,24S,27S,30S)-27-(2-carboxyethyl)-21-(carboxymethyl)-30-((2S,3R,4R,5R,6S)-6-((2-(4-(3-[F18]fluoropropyl)-1H-1,2,3-triazol-1-yl)acetamido)methyl)-3,4,5-trihydroxytetrahydro-2H-pyran-2-carboxamido)-24-isopropyl-18-methyl-17,20,23,26,29-pentaoxo-4,7,10,13-tetraoxa-16,19,22,25,28-pentaazadotriacontane-1,32-dioic acid [18F-CP-18]” the “parent tracer in urine” value [1] was 21%, the “clearance half-time of activity from blood pool / plasma” value ([2]; human) was ~ 30 minutes and the “percentage of plasma-borne activity in the form of 18F-CP-18” value [2] was 99%. For the same substance, the “bladder uptake (percent administered activity)” value [3] was 16-27%, the “crossing of the blood-brain barrier” value [3] was “did not appreciably cross the blood-brain barrier” and the “kidney uptake (percent administered activity)” value [3] was 3.5-11%. For the same substance, the “liver uptake (percent administered activity)” value [3] was 3.2-5.7%, the “mean SUV, bladder” value [3] was “approximately 65” and the “mean SUV, heart” value [3] was about 1.5. For the same substance, the “mean SUV, kidneys” value [3] was about 6, the “mean SUV, liver” value [3] was about 1.5 and the “renal system (kidneys and bladder together) uptake” value [3] was 22-31%. The “Normalized number of disintegrations, Brain” value [4] was 0.0089±0.0038 MBq-h/MBq administered, the “Normalized number of disintegrations, Breasts” value [4] was 0.015±0.0047 MBq-h/MBq administered and the “Normalized number of disintegrations, Heart Contents” value [4] was 0.026±0.0036 MBq-h/MBq administered. The “Normalized number of disintegrations, Kidneys” value [4] was 0.059±0.017 MBq-h/MBq administered, the “Normalized number of disintegrations, Liver” value [4] was 0.064±0.024 MBq-h/MBq administered and the “Normalized number of disintegrations, Remainder” value [4] was 0.82±0.14 MBq-h/MBq administered. The “Normalized number of disintegrations, Spleen” value [4] was 0.0090±0.0024 MBq-h/MBq administered, the “Normalized number of disintegrations, Testes” value [4] was 0.0057±0.0017 MBq-h/MBq administered and the “Normalized number of disintegrations, Urinary Bladder Wall (1.0-hr)” value [4] was 0.29±0.033 MBq-h/MBq administered. For the same substance, the “Normalized number of disintegrations, Urinary Bladder Wall (4.8-hr)” value [4] was 1.1±0.13 MBq-h/MBq administered, the “Estimated organ dose per unit administered activity, Brain” value [5] was 2.4±0.6 μGy/MBq and the “Estimated organ dose per unit administered activity, Breasts” value [5] was 7.7±3.6 μGy/MBq. The “Estimated organ dose per unit administered activity, Heart Wall” value [5] was 10±0.8 μGy/MBq, the “Estimated organ dose per unit administered activity, Kidneys” value [5] was 39±10 μGy/MBq and the “Estimated organ dose per unit administered activity, Thymus” value [5] was 4.8±0.7 μGy/MBq. For the same substance, the “Estimated organ dose per unit administered activity, Thyroid” value [5] was 4.2±0.7 μGy/MBq and the “adult female phantom doses, higher than adult male phantom” value [5] was 20–34%.
